Results reported in PMC11356571, “The Comparative Metabolism of a Novel Hepatocellular Carcinoma Therapeutic Agent, 2,3-Diamino-N-(4-(benzo[d]thiazol-2-yl)phenyl)propanamide, in Human and Animal Hepatocytes” (Metabolites, 2024).

Target: T1, human NAT1 (Homo sapiens, UniProt P18440)
T1 construct: purchased Corning Life Sciences (Woburn, MA, USA)
T1 sequence (P18440 1-290): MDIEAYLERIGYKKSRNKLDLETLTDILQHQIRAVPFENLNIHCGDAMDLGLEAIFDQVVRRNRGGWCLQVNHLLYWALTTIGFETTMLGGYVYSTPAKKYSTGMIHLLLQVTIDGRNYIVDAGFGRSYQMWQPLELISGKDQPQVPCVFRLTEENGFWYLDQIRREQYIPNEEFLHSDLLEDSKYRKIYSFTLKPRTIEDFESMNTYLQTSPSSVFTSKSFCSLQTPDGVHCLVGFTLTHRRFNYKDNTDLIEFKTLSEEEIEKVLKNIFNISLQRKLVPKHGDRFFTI
Test: Incubation with cDNA-expressed human NAT1
Type: in vitro ADME
Settings: cDNA-expressed human NAT1, 60 min at 37 °C, concentration of 0.1 μM
Procedure: Additionally, M1 was incubated with cDNA-expressed human NAT1 isozyme to confirm the involvement of the NAT1 isozyme in the N-acetylation of M1. This was carried out by monitoring the remaining percentage of M1 and the formation of M2 in a concentration-dependent manner. A 225 μL reaction mixture containing cDNA-expressed human NAT1 at 1 μg/mL, and 1 μM M1 (final concentration: 0.1 and 1 μM) in 0.05 M potassium phosphate buffer was pre-warmed for 5 min. The reaction was initiated by adding 25 μL of acetyl-CoA regenerating system to the incubates. The acetyl-CoA regenerating system consisted of 0.1 mM acetyl-CoA, 4.5 mM acetyl-DL-carnitine, and 2.0 unit/mL carnitine acetyltransferase as final concentrations. The samples were incubated in triplicate for 0 min or 60 min at 37 °C. The reactions were stopped by adding 250 μL of ice-cold acetonitrile containing the IS (camptothecin, 500 ng/mL). Samples were centrifuged at 13,000 rpm for 5 min at 4 °C. An aliquot of 2 μL supernatant was injected in LC-MS/MS system.
For enzyme characterization, an Agilent 6460 triple quadrupole mass spectrometer coupled with a 1260 HPLC system (Agilent Technologies, Santa Clara, CA, USA) and a Kinetex Halo® C18 column (2.7 μm, 2.1 × 50 mm, Advanced Material Technology, Wilmington, DE, USA) were used for chromatographic separation. […] ETN101, M1, and M2 were detected via MRM using ESI in the positive mode. […]

## Nc1ccc(-c2nc3ccccc3s2)cc1 [M1, 2-(4-aminophenyl)benzothiazole]
  Percentage remaining of M1: 90.3%
